Measurements from ChEMBL document CHEMBL3797072, “Discovery of Potent, Selective, and Orally Bioavailable Small-Molecule Modulators of the Mediator Complex-Associated Kinases CDK8 and CDK19” (J Med Chem, 2016).
In brackets after ≈: the same amount, converted by molar mass.

Assays:
physchem [1] = experiment: physchem
in vivo [2] = details: NMRI, mouse
in vivo [3] = details: Beagle, dog
in vivo [4] = details: Wistar, rat
in vivo [5] = details: mouse, plasma
in vivo [6] = details: mouse, faeces
in vivo [7] = details: mouse, plasma; remark: listed apart in the source
in vivo [8] = details: mouse, faeces; remark: listed apart in the source
in vitro [9] = details: rat, microsomes
in vitro [10] = details: mouse, microsomes
in vitro [11] = details: human, microsomes
physchem [12] = experiment: physchem; remark: listed apart in the source

solubility thermodynamic (physchem [1]) [µg/mL] | clearance (in vivo [5]) [mL/min/kg] | dose excreted (in vivo [6]) [%] | clearance (in vivo [7]) [mL/min/kg] | dose excreted (in vivo [8]) [%] | SMILES | also measured
2 (≈ 4.58 µM) | – | – | – | – | Cn1cc(-c2ccc(-c3cnc(N)c(Cl)c3N3CCC4(CCNC4=O)CC3)cc2)cn1 | –
1 (≈ 2.12 µM) | – | – | – | – | Cn1cc(-c2ccc(-c3cnc(N)c(C(F)(F)F)c3N3CCC4(CC3)CNC(=O)O4)cc2)cn1 | –
– | 47.3 | < 1 | 43.2 | 17 | Cn1cc(-c2ccc(-c3cnc(N)c(Cl)c3N3CCC4(CC3)CNC(=O)O4)cc2)cn1 | –
< 1 | – | – | – | – | CC(C)(O)Cn1cc(-c2ccc(-c3cnc(N)c(Cl)c3N3CCC4(CCNC4=O)CC3)cc2)cn1 | –

The remaining lines, values behind:

SMILES | solubility thermodynamic (physchem [1]) [µg/mL] | clearance (in vivo [5]) [mL/min/kg] | dose excreted (in vivo [6]) [%] | clearance (in vivo [7]) [mL/min/kg] | dose excreted (in vivo [8]) [%] | also measured
Cn1ncc2cc(-c3cnc(N)c(Cl)c3N3CCC4(CCNC4=O)CC3)ccc21 | 40 (≈ 97.3 µM) | – | – | – | – | half-life (in vivo [2]): 46.8 min; half-life (in vivo [3]): 59.4 min; half-life (in vivo [4]): 66 min
CN1c2ccc(-c3cnc(N)c(F)c3N3CCC4(CCNC4=O)CC3)cc2CS1(=O)=O | 29 (≈ 65.1 µM) | – | – | – | – | –
Cn1ncc2cc(-c3cnc(N)c(Cl)c3N3CCC4(CC3)CNC(=O)O4)ccc21 | 3 (≈ 7.27 µM) | – | – | – | – | –
COCCN1CCCC12CCN(c1c(Cl)cncc1-c1ccc3c(c1)CS(=O)(=O)N3C)CC2 | 248 (≈ 505 µM) | – | – | – | – | –
CN1c2ccc(-c3cnc(N)c(Cl)c3N3CCC4(CC3)CNC(=O)O4)cc2CS1(=O)=O | – | 47.5 | < 1 | 68 | 20 | –
Cn1cc(-c2ccc(-c3cncc(Cl)c3N3CCC4(CC3)NCNC4=O)cc2)cn1 | 47 (≈ 111 µM) | – | – | – | – | –
Cn1cc(-c2ccc(-c3cncc(Cl)c3N3CCC4(CC3)NC(=O)CNC4=O)cc2)cn1 | – | 37 | 24 | 73.8 | 67 | –
Cn1cc(-c2ccc(-c3cncc(Cl)c3N3CCC4(CCNC4=O)CC3)cc2)cn1 | 6 (≈ 14.2 µM) | 38.3 | < 1 | 39 | 9.1 | half-life (in vivo [2]): 33 min; microsomal CLint (in vitro [9]): 54 µL/min/mg; half-life (in vivo [3]): 42 min; microsomal CLint (in vitro [10]): 141 µL/min/mg; microsomal CLint (in vitro [11]): 84 µL/min/mg
Cn1cc(-c2ccc(-c3cncc(Cl)c3N3CCC4(CC3)CNC(=O)O4)cc2)cn1 | 3 (≈ 7.08 µM) | – | – | – | – | –
CN1c2ccc(-c3cncc(Cl)c3N3CCC4(CC3)CNC(=O)O4)cc2CS1(=O)=O | 17 (≈ 37.9 µM) | 66.7 | < 1 | 81.5 | 18 | –
CC(C)n1ncc2cc(-c3cnc(N)c(Cl)c3N3CCC4(CCNC4=O)CC3)ccc21 | – | – | – | – | – | solubility kinetic (physchem [12]): 126 µM (≈ 55.3 µg/mL); microsomal CLint (in vitro [9]): 139 µL/min/mg; microsomal CLint (in vitro [10]): 202 µL/min/mg; microsomal CLint (in vitro [11]): 202 µL/min/mg
